# In patent US9605027B2, “Polypeptides that bound to IL-23 receptor and inhibit binding of IL-23 and cell signaling thereof” (Medical Diagnostic Laboratories, LLC, priority 2011, dated 2017):
# Entries after “also recorded” stand apart in the source; their conditions may differ. Peptide text beside a SMILES is read from it.
# Target: T1, Recombinant human IL-23R-Fc (Homo sapiens, UniProt Q5VWK5)
# T1 construct: has the protein portion between the 24 amino acid residue to 353 amino acid residue; purchased R&D Systems 1400-IR-050
# T1 sequence (Q5VWK5 24-353): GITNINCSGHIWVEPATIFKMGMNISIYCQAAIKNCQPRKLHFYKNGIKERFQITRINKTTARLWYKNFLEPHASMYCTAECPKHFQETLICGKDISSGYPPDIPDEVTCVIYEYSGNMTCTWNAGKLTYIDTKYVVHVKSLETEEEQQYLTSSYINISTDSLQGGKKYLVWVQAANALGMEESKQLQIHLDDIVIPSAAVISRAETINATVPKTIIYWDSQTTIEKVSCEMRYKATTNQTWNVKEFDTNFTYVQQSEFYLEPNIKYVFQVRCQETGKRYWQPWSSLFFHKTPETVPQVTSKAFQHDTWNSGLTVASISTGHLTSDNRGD
# Assay: Competitive ELISA, IL-23 binding to IL-23R
# Details: for inhibition of IL-23 binding to its receptor by modified polypeptides, Competitive ELISA: procedure of Example 6, compared with parent polypeptide
# Method: The novel polypeptides were tested for their ability to inhibit IL-23 using a Competitive ELISA. In such an assay, IL-23R/Fc fusion protein was immobilized on a solid support. In this instance, the solid support was a 96-well plate, but the support may be any support that is typically used for an ELISA. The novel polypeptide and IL-23 were allowed to compete for binding to the immobilized IL-23R/Fc fusion protein. IL-23 that bound to IL-23R-Fc was detected using biotinylated anti-p40 antibody. The bound anti-p40 antibody was detected using streptavidin-horseradish peroxidase (HRP) and a tetramethylbenzidine (TMB) substrate was added to measure peroxidase activity. The color was measured at optical density (OD) 450nm. The color intensity was directly proportional to the amount of the bound IL-23 protein. […] (See, FIG. 16.)
# (§1) FIG. 12 is a schematic depiction of the Competitive ELISA. Recombinant human IL-23R-Fc (2 μg/ml) was coated onto microtiter plates as a capture reagent. IL-23 and polypeptides were added to compete for binding to the immobilized IL-23R-Fc. IL-23 that bound to IL-23R-Fc was detected using biotinylated anti-p40 antibody (1:250). The bound anti-p40 antibody was detected using streptavidin-horseradish peroxidase (HRP) (1:500) and 100 μl/well of a tetramethylbenzidine (TMB) substrate was added to measure peroxidase activity. The color was measured at optical density (OD) 450nm. (See, FIG. 12). The color intensity was directly proportional to the amount of the bound IL-23 protein.
# as §1, with “Recombinant” for “FIG. 12 is a schematic depiction of the Competitive ELISA. Recombinant”, “IL-23R-Fc. 50 μg human IL-23 (Cat. No. HZ-1048) (Humanzyme, Chicago, Ill.) in the presence or absence of 100 μM peptides was added to the well and incubated at 4° C. overnight.” for “IL-23R-Fc.”, “450nm.” for “450nm. (See, FIG. 12).”
smiles,measurement,setting,value
CSCC[C@@H]1NC(=O)[C@H](CCCCN)NC(=O)[C@H](C)NC(=O)[C@H](C)NC(=O)[C@H](CS)NC(=O)[C@H](CC(N)=O)NC(=O)[C@H](CCCCN)NC(=O)[C@H](CC(C)C)NC(=O)[C@H](Cc2c[nH]c3ccccc23)NC(=O)[C@H](Cc2ccc(O)cc2)NC(=O)[C@H](CC(=O)O)NC(=O)[C@H](C(C)C)NC(=O)[C@H](Cc2c[nH]c3ccccc23)NC(=O)[C@H]([C@@H](C)O)NC1=O [2HT AA] (cyclo(AAKMTWVDYWLKNC)),IC50,"human IL-23 / IL-23R-Fc, read-out: IC50, cell-free competitive ELISA",8.1 nM
same,"inhibition of IL-23 binding to its receptor by modified polypeptides, Competitive ELISA",,did not abrogate the polypeptides' ability; also recorded: best inhibitory activity
CSCC[C@@H]1NC(=O)[C@H](C)NC(=O)[C@@H](N)CSSC[C@@H](C(=O)O)NC(=O)[C@H](CCCNC(=N)N)NC(=O)CNC(=O)[C@H](Cc2ccc(O)cc2)NC(=O)[C@H](CC(C)C)NC(=O)[C@H](Cc2c[nH]c3ccccc23)NC(=O)[C@H](Cc2ccc(O)cc2)NC(=O)[C@H](CC(=O)O)NC(=O)[C@H](CCC(N)=O)NC(=O)[C@H](Cc2c[nH]c3ccccc23)NC(=O)[C@H]([C@@H](C)O)NC1=O [23.19],"inhibition of IL-23 binding to its receptor by modified polypeptides, Competitive ELISA",,equally effective
